Where two headings read alike, the source gives them in different places.
Assays:
[1] = log P by HPLC on reversed-phase column (EEC Directive 79/831 Annex V.A8); format: physicochemical; settings: reversed-phase HPLC column (C18); pH 7.8, 0.001 molar aqueous ammonium bicarbonate/acetonitrile, 55° C.; read-out: log P (neutral)
Method: The log P values are measured according to EEC Directive 79/831 Annex V.A8 by HPLC (high-performance liquid chromatography) on a reversed-phase column (C 18). Temperature: 55° C.
The LC-MS determination in the neutral range is effected at pH 7.8 with 0.001 molar aqueous ammonium bicarbonate solution and acetonitrile as mobile phases; linear gradient from 10% acetonitrile to 95% acetonitrile. Called log P (neutral) in the table.
Calibration is carried out using unbranched alkan-2-ones (having 3 to 16 carbon atoms) with known Log P values (Log P values determined on the basis of the retention times by linear interpolation between two successive alkanones).

Phaedon cochleariae = Phaedon cochleariae spray test; format: in vivo; settings: 168 h, read-out: efficacy; for pest or weed control at 20 g/ha: application rate 20 g/ha
Method: Phaedon cochleariae—Spray Test • Solvent: 78.0 parts by weight of acetone • 1.5 parts by weight of dimethylformamide • Emulsifier: alkylaryl polyglycol ether
(§1) To produce a suitable active compound preparation, 1 part by weight of active compound is dissolved using the stated parts by weight of solvent and made up with water containing an emulsifier concentration of 1000 ppm until the desired concentration is attained. To produce further test concentrations, the formulation is diluted with emulsifier-containing water.
Discs of Chinese cabbage leaves (Brassica pekinensis) are sprayed with an active compound formulation of the desired concentration and, after drying, populated with larvae of the mustard beetle (Phaedon cochleariae).
After 7 days, the efficacy in % is determined. 100% means that all the beetle larvae have been killed; 0% means that no beetle larvae have been killed.

Myzus persicae [2] = assay: Myzus persicae spray test (Chinese cabbage leaf discs); format: in vivo; settings: foliar, 120 h, read-out: efficacy
Method: Myzus persicae Spray Test • Solvent: 78 parts by weight of acetone • 1.5 parts by weight of dimethylformamide • Emulsifier: alkylaryl polyglycol ether
as §1
Discs of Chinese cabbage leaves (Brassica pekinensis) infested by all stages of the green peach aphid (Myzus persicae) are sprayed with an active compound formulation of the desired concentration.
(§2) After 5 days, the efficacy in % is determined. 100% means that all the aphids have been killed; 0% means that no aphids have been killed.

Myzus persicae [3] = assay: Myzus persicae oral test; format: in vivo; settings: 120 h, read-out: efficacy
Method: Myzus persicae Oral Test • Solvent: 100 parts by weight of acetone
To produce a suitable preparation of active compound, 1 part by weight of active compound is dissolved using the specified parts by weight of solvent and made up with water until the desired concentration is attained.
50 μl of the active compound preparation are transferred into microtitre plates and made up to a final volume of 200 μl with 150 μl of IPL41 insect medium (33%+15% sugar). Subsequently, the plates are sealed with parafilm, which a mixed population of green peach aphids (Myzus persicae) within a second microtitre plate is able to puncture and imbibe the solution through.
as §2

Aphis gossypii = Aphis gossypii spray test (APHIGO); format: in vivo; settings: 144 h, 6 dat, read-out: % efficacy
Method: Aphis gossypii Spray Test (APHIGO) • Solvent: 14 parts by weight of dimethylformamide • Emulsifier: alkylaryl polyglycol ether
(§3) To produce a suitable active compound preparation, 1 part by weight of active compound is dissolved using the stated parts by weight of solvent and made up with water containing an emulsifier concentration of 1000 ppm until the desired concentration is attained. To produce further test concentrations, the formulation is diluted with emulsifier-containing water. If the addition of ammonium salts or/and penetrants is required, these are each added in a concentration of 1000 ppm to the formulation solution.
Cotton plants (Gossypium hirsutum) heavily infested by the cotton aphid (Aphis gossypii) are sprayed with an active compound formulation of the desired concentration.
After the desired time, the kill in % is determined. 100% means that all the aphids have been killed; 0% means that no aphids have been killed.

Myzus persicae [4] = assay: Myzus persicae spray test (MYZUPE S), bell pepper plants; format: in vivo; settings: 144 h, 6 dat, read-out: % efficacy
Method: Myzus persicae—Spray Test (MYZUPE S) • Solvent: 14 parts by weight of dimethylformamide • Emulsifier: alkylaryl polyglycol ether
as §3
Bell pepper plants (Capsicum annuum) severely infested with the green peach aphid (Myzus persicae) are treated by spraying with the active compound formulation in the desired concentration.
After the desired time, the kill in % is determined. 100% means that all the animals have been killed; 0% means that no animals have been killed.

Ctenocephalides felis = Ctenocephalides felis oral test; format: in vivo; settings: application rate 100 ppm in citrated cattle blood, after 2 days
Method: Ctenocephalides felis—Oral Test • Solvent: dimethyl sulfoxide
To produce a suitable active compound formulation, 10 mg of active compound are mixed with 0.5 ml of dimethyl sulfoxide. Dilution with citrated cattle blood gives the desired concentration.
About 20 unfed adult cat fleas (Ctenocephalides felis) are placed into a chamber which is closed at the top and bottom with gauze. A metal cylinder whose bottom end is closed with parafilm is placed onto the chamber. The cylinder contains the blood/active compound formulation, which can be imbibed by the fleas through the parafilm membrane.
After 2 days, the kill in % is determined. 100% means that all of the fleas have been killed; 0% means that none of the fleas have been killed.

Lucilia cuprina = Lucilia cuprina test; format: in vivo; settings: application rate 100 ppm, L1 larvae, after 2 days
Method: Lucilia cuprina Test • Solvent: dimethyl sulfoxide
To produce a suitable active compound formulation, 10 mg of active compound are mixed with 0.5 ml of dimethyl sulfoxide, and the concentrate is diluted with water to the desired concentration.
About 20 L1 larvae of the Australian sheep blowfly (Lucilia cuprina) are transferred into a test vessel containing minced horsemeat and the active compound formulation of the desired concentration.
After 2 days, the kill in % is determined. 100% means that all the larvae have been killed; 0% means that no larvae have been killed.

Spodoptera frugiperda = Spodoptera frugiperda spray test; format: in vivo; settings: application rate 100 g/ha, after 7 days
Method: Spodoptera frugiperda—Spray Test • Solvent: 78.0 parts by weight of acetone • 1.5 parts by weight of dimethylformamide • Emulsifier: alkylaryl polyglycol ether
as §1
Leaf discs of maize (Zea mays) are sprayed with an active compound formulation of the desired concentration and, after drying, populated with caterpillars of the fall armyworm (Spodoptera frugiperda).
After 7 days, the efficacy in % is determined. 100% means that all the caterpillars have been killed; 0% means that no caterpillar has been killed.

Nilaparvata lugens = Nilaparvata lugens spray test (NILALU); format: in vivo; settings: 96 h, 4 dat, read-out: % efficacy
Method: Nilaparvata lugens—Spray Test (NILALU) • Solvent: 52.5 parts by weight of acetone • 7 parts by weight of dimethylformamide • Emulsifier: alkylaryl polyglycol ether
as §3
Rice plants (Oryza sativa) are sprayed with an active ingredient formulation of the desired concentration and then populated with larvae of the brown planthopper (Nilaparvata lugens).
After the desired period of time, the efficacy in % is determined. 100% means that all of the planthoppers have been killed; 0% means that none of the planthoppers have been killed.

Myzus persicae [5] = assay: Myzus persicae drench test (MYZUPE D), savoy cabbage; format: in vivo; settings: soil, 240 h, 10 dat, read-out: % efficacy
Method: Myzus persicae—Drench Test (MYZUPE D) • Solvent: 7 parts by weight of dimethylformamide • Emulsifier: 2 parts by weight of alkylaryl polyglycol ether
To produce a suitable active compound preparation, 1 part by weight of active compound is mixed with the specified amounts of solvent and emulsifier, and the concentrate is diluted with water to the desired concentration, it being necessary to include the volume of soil which is drenched in the calculation. It should be ensured that a concentration of 40 ppm of emulsifier in the soil is not exceeded. To produce further test concentrations, water is used for dilution.
Savoy cabbage (Brassica oleracea) in pots with soil and infested by all stages of the green peach aphid (Myzus persicae) is watered with an active compound preparation of the desired concentration.
After the desired period of time, the efficacy in % is determined. 100% means that all the aphids have been killed; 0% means that no aphids have been killed.

[6] = application rate 100 g/ha, after 7 days
[7] = application rate 100 g/ha, after 5 days
[8] = application rate 4 ppm, after 5 days

CCS(=O)(=O)c1c(C(N)=O)nc2cc(C(F)(F)F)ccn12 [3-(Ethylsulfonyl)-7-(trifluoromethyl)imidazo[1,2-a]pyridine-2-carboxamide]
chromatographic logP [1]: 1.57

CCS(=O)(=O)c1c(C#N)nc2cc(C(F)(F)F)ccn12 [3-(Ethylsulfonyl)-7-(trifluoromethypimidazo[1,2-a]pyridine-2-carbonitrile]
chromatographic logP [1]: 2.28

FC(F)(F)c1cn2nc(-c3nc4ccccc4cc3Br)nc2cn1 [3-Bromo-2-[6-(trifluoromethyl)-[1,2,4]triazolo[1,5-a]pyrazin-2-yl]quinoline]
chromatographic logP [1]: 2.98

N=C(Nc1cnc(C(F)(F)F)cn1)c1nc2ccccc2cc1Br [3-Bromo-N-[5-(trifluoromethyl)pyrazin-2-yl]quinoline-2-carboxamidine]
chromatographic logP [1]: 3.01

CCS(=O)(=O)c1cc2ccccc2nc1-c1nc2cnc(C(F)(F)F)cn2n1 [Example I-02, 3-Ethylsulfonyl-2-[6-(trifluoromethyl)-[1,2,4]triazolo[1,5-a]pyrazin-2-yl]quinoline]
pest or weed control at 100 g/ha (Phaedon cochleariae; [6]): 100% | pest or weed control at 100 g/ha (Myzus persicae [2]; [7]): 100% | chromatographic logP [1]: 2.44 | pest or weed control at 4 ppm (Myzus persicae [3]; [8]): 90%

CCS(=O)(=O)c1cc2ccccc2nc1-c1nc2ccc(C(F)(F)F)cn2n1 [Example I-03]
pest or weed control at 100 g/ha (Phaedon cochleariae; [6]): 100% | pest or weed control at 100 g/ha (Myzus persicae [2]; [7]): 90% | pest or weed control at 4 ppm (Myzus persicae [3]; [8]): 100%

CCS(=O)(=O)c1c(-c2nc3ccc(C(F)(F)F)cn3n2)nc2n1CCCC2 [Example I-04]
pest or weed control at 4 ppm (Myzus persicae [3]; [8]): 100%

CCS(=O)(=O)c1c(-c2nc3ccc(C(F)(F)F)cn3n2)nc2cc(OCC(F)(F)F)ccn12 [Example I-06]
pest or weed control at 20 g/ha (Phaedon cochleariae; after 7 days): 100% | pest or weed control at 100 g/ha (Phaedon cochleariae; [6]): 100% | Emax at 20 ppm (Aphis gossypii): 95% | pest or weed control at 4 ppm (Myzus persicae [3]; [8]): 100% | Emax at 20 ppm (Myzus persicae [4]): 99%

CCS(=O)(=O)c1c(-c2nc3ccc(C(F)(F)F)cn3n2)nc2cc(NC(C)=O)ccn12 [Example I-07]
efficacy (kill) (Ctenocephalides felis): 100% | pest or weed control at 4 ppm (Myzus persicae [3]; [8]): 100%

CCS(=O)(=O)c1c(-c2nc3ccc(C(F)(F)F)cn3n2)nc2cc(NC(=O)OC)ccn12 [Example I-08]
pest or weed control at 100 g/ha (Phaedon cochleariae): 83% | efficacy (kill) (Lucilia cuprina): 100% | efficacy (kill) (Ctenocephalides felis): 90% | pest or weed control at 100 g/ha (Myzus persicae [2]): 100% | pest or weed control at 4 ppm (Myzus persicae [3]): 100%

CCS(=O)(=O)c1c(-c2nc3ccc(C(F)(F)F)cn3n2)nc2cc(C3CC3)ccn12 [Example I-10]
efficacy (Spodoptera frugiperda): 83% | pest or weed control at 20 g/ha (Phaedon cochleariae; after 7 days): 83% | Emax at 100 g/ha (Nilaparvata lugens): 100% | Emax at 20 ppm (Myzus persicae [5]): 90% | pest or weed control at 100 g/ha (Myzus persicae [2]; [7]): 90% | aphid kill at 20 ppm (Aphis gossypii): 99% | pest or weed control at 4 ppm (Myzus persicae [3]; [8]): 100% | Emax at 20 ppm (Myzus persicae [4]): 100%

CCS(=O)(=O)c1c(-c2nc3ccc(C(F)(F)F)cn3n2)nc2cc(C(=O)OC)ccn12 [Example I-11]
pest or weed control at 4 ppm (Myzus persicae [3]; [8]): 100%

CCS(=O)(=O)c1c(-c2nc3ccc(C(F)(F)F)cn3n2)nc2cc(S(=O)(=O)C3CC3)ccn12 [Example I-13]
pest or weed control at 20 g/ha (Phaedon cochleariae; after 7 days): 83% | pest or weed control at 100 g/ha (Phaedon cochleariae; [6]): 100% | Emax at 100 g/ha (Nilaparvata lugens): 100% | Emax at 20 ppm (Myzus persicae [5]): 100% | pest or weed control at 100 g/ha (Myzus persicae [2]; [7]): 100% | Emax at 20 ppm (Aphis gossypii): 99% | pest or weed control at 4 ppm (Myzus persicae [3]; [8]): 100% | Emax at 20 ppm (Myzus persicae [4]): 95%

CCS(=O)(=O)c1c(-c2nc3ccc(C(F)(F)F)cn3n2)ncc2ccccc12 [Example I-15]
pest or weed control at 100 g/ha (Myzus persicae [2]; [7]): 90% | pest or weed control at 4 ppm (Myzus persicae [3]; [8]): 100%

CCS(=O)(=O)c1c(-c2nc3cnc(C(F)(F)F)cn3n2)ncc2ccccc12 [Example I-16]
pest or weed control at 100 g/ha (Myzus persicae [2]; [7]): 100% | pest or weed control at 4 ppm (Myzus persicae [3]; [8]): 100%

CCS(=O)(=O)c1c(-c2nc3cc(C(F)(F)F)ccc3n2C)nc2cc(C(F)(F)F)ccn12 [Example I-34, reference compound]
Emax at 100 g/ha (Nilaparvata lugens): 0% | Emax at 500 g/ha (Nilaparvata lugens; 500 g/ha): 0% | Emax at 20 ppm (Myzus persicae [5]): 0% | aphid kill at 20 ppm (Aphis gossypii): 0% | Emax at 20 ppm (Myzus persicae [4]): 0%

CCSc1c(C(=O)OC)nc2cc(C(F)(F)F)ccn12 [Methyl 3-(ethylsulfanyl)-7-(trifluoromethyl)imidazo[1,2-a]pyridine-2-carboxylate]
chromatographic logP [1]: 2.56

CCS(=O)(=O)c1c(C(=O)OC)nc2cc(C(F)(F)F)ccn12 [Methyl 3-(ethylsulfonyl)-7-(trifluoromethyl)imidazo[1,2-a]pyridine-2-carboxylate]
chromatographic logP [1]: 2.15
